Usually tissue uptake stands for the share of the injected amount in each gram of the tissue. A higher tissue uptake goes with high uptake. A word on the half-life: it is the time needed for the level to fall by half in the phase considered. For orientation: Kd means the concentration at which binding is half-saturated.

A short description of data set [1]: In vivo biodistribution of 111In-labeled miniproteins by SPECT/CT, HT-1376 xenograft. The arrangement: species or system mouse. As to conditions: female, athymic nude, mouse, in vivo. The text has this: HT-1376 is a human cell line that expresses Nectin-4.
Humane endpoints: All animals were euthanized following the final imaging time point and carcasses were discarded according to IACUC protocols.
Image Processing: Images were generated as SPECT/CT pairs with the SPECT reported in units of activity.
Image generation: After the preprocessing described in A, individual maximum intensity projections (MIPs) were created with VivoQuant software for each subject at each time point and scaled in percent injected dose per gram (% ID/g). The CT for each image was windowed from −500 to 4500 Hounsfield Units (HU). The SPECT was windowed at various ranges to highlight different regions of uptake. Images were then stitched together using Image Magick based python tools to create montages of subjects over time and time points over groups.

Data set [2] is described as follows: In vitro metabolic stability in serum/plasma (percent parent remaining, LC-MS). The format is in vitro ADME. The conditions noted are these: mouse. As to the method: Exemplary miniproteins were spiked into biological matrices at initial concentration between 1-2 μM. Tested matrices were varied by species (mouse, rat, human) and type (plasma, serum, and kidney brush border membrane (kBBM) preparations tested each from 0.625-100 μg/mL protein content). Tested conditions were incubated with miniproteins at 37° C. for 4 h. At collection points of 0, 15, 30, 60, 120, 240 minutes, 50 μL of each condition were quenched by organic solvent (methanol or acetonitrile) or the addition of 4% phosphoric acid solution followed by solid-phase extraction. Fractions of each quenched timepoint were subsequently assayed for parent miniproteins concentration by high resolution LC-MS. Percent-parent-remaining-time plots were constructed from the ratio of each given time collection to the time-zero parent miniprotein. Percent-parent-remaining in mouse serum and plasma for exemplary miniproteins are recorded in TABLE 11.

Data set [3] addresses T1, Nectin-4 (Homo sapiens, UniProt Q96NY8).
T1 sequence (Q96NY8 32-510): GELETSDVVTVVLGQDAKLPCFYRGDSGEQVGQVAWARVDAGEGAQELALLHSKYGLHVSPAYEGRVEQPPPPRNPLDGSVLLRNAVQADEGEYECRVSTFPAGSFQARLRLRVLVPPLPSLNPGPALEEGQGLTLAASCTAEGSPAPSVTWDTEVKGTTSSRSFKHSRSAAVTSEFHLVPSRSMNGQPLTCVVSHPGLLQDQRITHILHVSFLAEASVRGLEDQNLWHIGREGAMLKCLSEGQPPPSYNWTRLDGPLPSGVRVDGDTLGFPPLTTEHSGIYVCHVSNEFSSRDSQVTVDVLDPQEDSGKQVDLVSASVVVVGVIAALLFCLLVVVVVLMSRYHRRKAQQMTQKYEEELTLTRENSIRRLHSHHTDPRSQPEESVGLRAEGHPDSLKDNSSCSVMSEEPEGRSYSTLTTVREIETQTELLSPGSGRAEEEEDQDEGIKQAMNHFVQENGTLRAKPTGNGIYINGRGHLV
The experiment in a line: DELFIA whole cell binding assay, equilibrium binding affinity (KD), Table 2B. The conditions noted are these: Table 2B, binding to Nectin-4; read-out: Binding Affinity (KD). Here is the method: A whole cell binding assay was used to estimate the equilibrium binding affinity (KD) or binding inhibition constant (Ki) of miniprotein ligands to cells expressing a target of interest. Cells were dispensed into a 384-well plate and incubated at 37° C., in 5% CO2 overnight. The next day cells were gently washed once in assay buffer prior to addition of europium chelated ligand. For KD determination, a miniprotein conjugated with europium chelate (DOTA or DTPA) in the presence or absence of 100-fold excess un-conjugated ligand was incubated with cells over 12 different concentrations ranging from 100 times below and above expected KD values. For Ki determination, a single concentration (KD equivalent concentration) of europium-chelate miniprotein was added to each well followed immediately by the addition of unconjugated competing ligand over 12 different concentrations ranging from 100 times below and above expected Ki values as before. The plate was incubated for 1.5 h at room temperature to reach binding equilibrium. Cells were then washed three times at room temperature with 1×PBS followed by the addition of 2 M HCl and incubated for two h at 37° C. Following this step, 2 M NaOH and fluorescent inducer solution were added to each well and incubated for 30 minutes at room temperature according to the manufacturer's protocol (Perkin-ELMER DELFIA assay). Plates were read on an Envision plate reader and a curve-fitting model was applied to estimate KD and Ki values using GraphPad Prism software. Mean DELFIA K; values for exemplary miniproteins are recorded in TABLE 9A.

Bridges are numbered along the chain shown (N, C = ends). [ ]: non-standard residue; d: D form. The star is where a group is joined. DOTA = O=C(O)CN1CCN(CC(=O)O)CCN(CC(=O)*)CCN(CC(=O)O)CC1; Arg(Me2s) = CN=C(NC)NCCC[C@H](N)C(=O)O; PEG4 = NCCOCCOCCOCCOCCC(=O)O Where only a bound is given, the exact number is not on record here.

Regarding `CC[C@H](C)[C@@H]1NC(=O)[C@H](Cc2ccc(O)cc2)NC(=O)[C@H](CCC(=O)O)NC(=O)[C@@H]2CSSC[C@@H](C(=O)N[C@@H](CO)C(=O)O)NC(=O)CNC(=O)[C@H](CC(C)C)NC(=O)[C@H](CC(N)=O)NC(=O)[C@H](CC(=O)O)NC(=O)[C@H](CC(C)C)NC(=O)[C@H]([C@@H](C)CC)NC(=O)[C@H](CCC(=O)O)NC(=O)[C@H](CCC(=O)O)NC(=O)[C@H]([C@@H](C)CC)NC(=O)[C@H](CSSC[C@H](NC(=O)CCOCCOCCOCCOCCNC(=O)CN3CCN(CC(=O)O)CCN(CC(=O)O)CCN(CC(=O)O)CC3)C(=O)N[C@@H](CC(=O)O)C(=O)N[C@@H](Cc3ccc(O)cc3)C(=O)N[C@@H](CC(=O)O)C(=O)N[C@@H](CCC(=O)O)C(=O)N[C@@H](CCC(N)=O)C(=O)N[C@@H](Cc3ccccc3)C(=O)N[C@@H](Cc3ccccc3)C(=O)N[C@@H]([C@@H](C)O)C(=O)N[C@@H](C)C(=O)N[C@@H](CC(C)C)C(=O)N[C@@H](CCCCN)C(=O)N[C@@H](CCCNC(=N)N)C(=O)N[C@@H](CC(C)C)C(=O)N[C@@H](CCCNC(=N)N)C(=O)NCC(=O)NCC(=O)N[C@@H](CC(=O)O)C(=O)N[C@@H]([C@@H](C)CC)C(=O)N2)NC(=O)[C@H](CC(C)C)NC(=O)CNC(=O)[C@@H]2CCCN2C(=O)[C@H](CC(C)C)NC(=O)[C@H](Cc2ccc(O)cc2)NC(=O)[C@H](CCC(N)=O)NC(=O)[C@H](Cc2ccccc2)NC(=O)[C@H](CO)NC(=O)[C@H](C)NC(=O)[C@H](CCC(N)=O)NC1=O` [Compound C241], in data set [1], the tissue uptake at 4 h is 60.1 %ID/g and the tissue uptake at 24 h worked out at 38.3 %ID/g. For the same compound, the half-life in data set [2] is > 12 h. Also, the half-life in data set [2] (plasma) was > 12 h.

Regarding `CC[C@H](C)[C@@H]1NC(=O)[C@H](Cc2ccc(O)cc2)NC(=O)[C@H](CCC(=O)O)NC(=O)[C@@H]2CSSC[C@@H](C(=O)N[C@@H](CO)C(=O)O)NC(=O)CNC(=O)[C@H](CC(C)C)NC(=O)[C@H](CC(N)=O)NC(=O)[C@H](CC(=O)O)NC(=O)[C@H](CC(C)C)NC(=O)[C@H]([C@@H](C)CC)NC(=O)[C@H](CCC(=O)O)NC(=O)[C@H](CCC(=O)O)NC(=O)[C@H]([C@@H](C)CC)NC(=O)[C@H](CSSC[C@H](NC(=O)CCOCCOCCOCCOCCNC(=O)CN3CCN(CC(=O)O)CCN(CC(=O)O)CCN(CC(=O)O)CC3)C(=O)N[C@@H](CC(=O)O)C(=O)N[C@@H](Cc3ccc(O)cc3)C(=O)N[C@@H](CC(=O)O)C(=O)N[C@@H](CCC(=O)O)C(=O)N[C@@H](CCC(N)=O)C(=O)N[C@@H](Cc3ccccc3)C(=O)N[C@@H](Cc3ccccc3)C(=O)N[C@@H]([C@@H](C)O)C(=O)N[C@@H](C)C(=O)N[C@@H](CC(C)C)C(=O)N[C@@H](CCCCN)C(=O)N[C@@H](CCCNC(=N)N)C(=O)N[C@@H](CC(C)C)C(=O)N[C@@H](CCCNC(=N)N)C(=O)NCC(=O)N[C@@H](C)C(=O)N[C@@H](CC(=O)O)C(=O)N[C@@H]([C@@H](C)CC)C(=O)N2)NC(=O)[C@H](CCC(=O)O)NC(=O)CNC(=O)[C@@H]2CCCN2C(=O)[C@H](CC(C)C)NC(=O)[C@H](Cc2ccc(O)cc2)NC(=O)[C@H](CCC(N)=O)NC(=O)[C@H](Cc2ccccc2)NC(=O)[C@H](CO)NC(=O)[C@H](C)NC(=O)[C@H](CCC(N)=O)NC1=O` [Compound C271], in data set [1], the tissue uptake at 4 h came out at 59.1 %ID/g and the tissue uptake at 24 h was determined as 34.3 %ID/g. For the same compound, the half-life in data set [2] was > 12 h. For the same compound, the half-life in data set [2] (plasma) was > 12 h.

As to `CC[C@H](C)[C@@H]1NC(=O)[C@H](Cc2ccc(O)cc2)NC(=O)[C@H](CCC(=O)O)NC(=O)[C@@H]2CSSC[C@@H](C(=O)N[C@@H](CO)C(=O)O)NC(=O)CNC(=O)[C@H](CC(C)C)NC(=O)[C@H](CC(N)=O)NC(=O)[C@H](CC(=O)O)NC(=O)[C@H](CC(C)C)NC(=O)[C@H]([C@@H](C)CC)NC(=O)[C@H](CCC(=O)O)NC(=O)[C@H](CCC(=O)O)NC(=O)[C@H]([C@@H](C)CC)NC(=O)[C@H](CSSC[C@H](NC(=O)CCOCCOCCOCCOCCNC(=O)CN3CCN(CC(=O)O)CCN(CC(=O)O)CCN(CC(=O)O)CC3)C(=O)N[C@@H](CC(=O)O)C(=O)N[C@@H](Cc3ccc(O)cc3)C(=O)N[C@@H](CC(=O)O)C(=O)N[C@@H](CCC(=O)O)C(=O)N[C@@H](CCC(N)=O)C(=O)N[C@@H](Cc3ccccc3)C(=O)N[C@@H](Cc3ccccc3)C(=O)N[C@@H]([C@@H](C)O)C(=O)N[C@@H](C)C(=O)N[C@@H](CC(C)C)C(=O)N[C@@H](C)C(=O)N[C@@H](CCCNC(=N)N)C(=O)N[C@@H](CC(C)C)C(=O)N[C@@H](CCCNC(=N)N)C(=O)NCC(=O)N[C@@H](C)C(=O)N[C@@H](CC(=O)O)C(=O)N[C@@H]([C@@H](C)CC)C(=O)N2)NC(=O)[C@H](CCC(=O)O)NC(=O)CNC(=O)[C@@H]2CCCN2C(=O)[C@H](CC(C)C)NC(=O)[C@H](Cc2ccc(O)cc2)NC(=O)[C@H](CCC(N)=O)NC(=O)[C@H](Cc2ccccc2)NC(=O)[C@H](CO)NC(=O)[C@H](C)NC(=O)[C@H](CCC(N)=O)NC1=O` [Compound C245], in data set [1], the tissue uptake at 4 h was determined as 61 %ID/g and the tissue uptake at 24 h is 33.5 %ID/g. In addition, the half-life in data set [2] is > 12 h. In data set [2] (plasma), the half-life is > 12 h.

On to “{DOTA-PEG4}-CEYDEQFFTALARLRGGDICEYIQARFQYLPGLCIEEILDNLGCS-OH (disulfide 1-34, 20-44 (inferred)) [Compound C265]”, for which the half-life in data set [2] and in data set [2] (plasma) was > 12 h each time.

On to `CC[C@H](C)[C@@H]1NC(=O)CNC(=O)[C@@H]2CCCN2C(=O)[C@H](CC(C)C)NC(=O)[C@H](Cc2ccc(O)cc2)NC(=O)[C@H](CC(N)=O)NC(=O)[C@H](Cc2ccccc2)NC(=O)[C@H](C)NC(=O)[C@H](CCC(N)=O)NC(=O)[C@H](CCC(N)=O)NC(=O)[C@H]([C@@H](C)CC)NC(=O)[C@H](Cc2ccc(O)cc2)NC(=O)[C@H](Cc2ccc(O)cc2)NC(=O)[C@@H]2CSSC[C@@H](C(=O)O)NC(=O)CNC(=O)[C@H](CC(C)C)NC(=O)[C@H](CC(N)=O)NC(=O)[C@H](CC(=O)O)NC(=O)[C@H](CC(C)C)NC(=O)[C@H]([C@@H](C)CC)NC(=O)[C@H](CCC(=O)O)NC(=O)[C@H](CCC(=O)O)NC(=O)[C@H]([C@@H](C)CC)NC(=O)[C@H](CSSC[C@H](NC(C)=O)C(=O)N[C@@H](CCC(=O)O)C(=O)N[C@@H](Cc3ccc(O)cc3)C(=O)N[C@@H](CC(=O)O)C(=O)N[C@@H](CCC(=O)O)C(=O)N[C@@H](CCC(=O)O)C(=O)N[C@@H](Cc3ccccc3)C(=O)N[C@@H](Cc3ccccc3)C(=O)N[C@@H]([C@@H](C)O)C(=O)N[C@@H](C)C(=O)N[C@@H](CC(C)C)C(=O)N[C@@H](CCCCN)C(=O)N[C@@H](CCCCN)C(=O)N[C@@H](CC(C)C)C(=O)N[C@@H](CCCNC(=N)N)C(=O)NCC(=O)NCC(=O)N[C@@H](CC(=O)O)C(=O)N[C@@H]([C@@H](C)CC)C(=O)N2)NC1=O` [Compound C104], for which, in data set [1], the tissue uptake at 4 h was determined as 69.6 %ID/g and the tissue uptake at 24 h turned out to be 40.6 %ID/g. Besides, the Kd in data set [3] was 3.7 nM.

On to “{DOTA-PEG4}-CEYDEQFFTALARLRGGDICEYIQA[Arg(Me2s)]FQYLPGLCIEEILDNLGCS-OH (disulfide 1-34, 20-44 (inferred)) [Compound C268]”, for which the half-life in data set [2] and in data set [2] (plasma) was > 12 h throughout.

Values taken from patent publication US12427212B2, “Nectin-4 binding miniproteins, conjugates and uses thereof” (Aktis Oncology, Inc., priority 2023, dated 2025).
